According to patent publication US20160295854A1, “COMPOSITION AND METHOD FOR EX-VIVO IMMUNOMODULATION AND/OR PRESERVATION OF ORGANS, METHODS AND USE” (UNIAO BRASILEIRA DE EDUCACAO E ASSISTENCIA , MANTENEDORA DA …, priority 2014, published 2016):

Key:
[1] = tested on: cutaneous allograft (B6 donor skin in BALB/c recipients); experiment: Murine model of cutaneous allograft, graft immersion-treatment; type: in vivo, mice (Mus musculus)
From the text: A method for treating grafts, including allografts, was developed by the inventors of the present invention. Thus, the method treats the grafts (that may be full organs) instead of recipient that will receive the graft, using as tool a classic murine model of skin transplantation and well established. Such method, to the light of the inventors, may be considered as new and inventive. The said model consists of a complete incompatibility of MHC molecules and was described by BILLINGHAM & MEDAWAR (1951).
BALB/c recipients, which express the MHC II I-A^d molecule, are anaesthetized and the dorsal stem hairs are removed. In the waxed area, 1 cm^2 of the skin was removed in each recipient mouse and the donor tail skin was sutured in the exposed area. The animals are maintained in individual cages and daily monitored. The graft rejection is confirmed by observing the cyanosis, erythema, erosion and cutaneous graft loss.
This model consists of a complete incompatibility of MHC molecules and was described by BILLINGHAM & MEDAWAR (1951). In this model, the donor mouse B6, which expresses the MHC II I-A^b molecule, is sacrificed. […] After this period, the grafts were sutured in the BALB/c recipients' back, who express the MHC II I-A^d molecule, and the rejection clinical progression is daily monitored.
After that, the grafts were sutured in the BALB/c (I-Ad) animals' back. The animals were daily monitored. ***, p<0.0001. n=22-24 mice per group. The results achieved putting the seven independent experiments together.
After this, these grafts were sutured in BALB/c recipients WT and their rejection were daily monitored.
After this, the grafts were sutured in the BALB/c (I-Ad) animals' back. The animals were daily monitored. *, p<0.05. n=4 mice per group.

[2] = tested on: IL-10; experiment: IL-10 production by DCs (real time PCR and CBA); type: cell-based, mice (Mus musculus)
[3] = tested on: donor cells (I-A^b+ or GFP+) in recipient DLN; experiment: Donor migratory cells screened in the recipient DLN by flow cytometry; type: in vivo, mice (Mus musculus)
[4] = tested on: MHC II; experiment: MHC II expression in LPS-activated BMDCs; type: cell-based, mice (Mus musculus); conditions: BMDCs treated or not with LPS 24 h, then treated or not with Hsp70 for additional 24 h
[5] = tested on: recipient DCs; experiment: Indirect alloantigen presentation by recipient DCs (Y-Ae antibody); type: in vivo, mice (Mus musculus); conditions: BALB/c grafts in B6 recipients; vs OVA
Experimental: Subsequently, the alloantigens presentation was analyzed by the recipient DCs using the antibody Y-Ae. This antibody recognizes a peptide (Eα52-68) expressed in BALB/c animals bound in the MHC II I-A^b molecule (expressed in the B6 animals).

[6] = tested on: ERK; experiment: p-ERK intracellular marking in BMDCs; type: cell-based, mice (Mus musculus)
[7] = tested on: STAT3; experiment: p-STAT3 intracellular marking in BMDCs; type: cell-based, mice (Mus musculus); conditions: 30 μg/ml, 45 minutes after the stimulus
Experimental: As positive control, the cells were stimulated with […] of phorbol myristate acetate (PMA) for 30 minutes. After the stimuli in the periods mentioned, the cells were fixed with Cytofix Buffer (BD Biosciences) for 10 minutes at 37° C. and permeated with Phosflow Perm Buffer III (BD Biosciences) for 30 minutes on ice. After such procedures, the cells were marked for p-ERK1/2 and p-STAT3.
For analyzing the recipients T cells, the cells were marked for CD4 (GK1.5), CD8a (53-6.7), Foxp3 (MF23), Ki67 (B56) achieved from BD Biosciences. […] The levels of phosphorylated ERK and STAT3 were determined using antibodies for p-ERK1/2 and p-STAT3 (BD Biosciences) in BMDCs previously fixed and permeablized. The cells were subsequently analyzed in the flow cytometer FACSCanto II (BD Biosciences) with the BD FACSDiva (BD Biosciences) program. The data achieved were analyzed with the Flowjo program (version 7.6.5, Tree Star).
The p-ERK expression was measured by flow cytometry. […] The p-STAT3 expression was measured by flow cytometry. […] After that, the IL-10 mRNA levels were measured by Real-time PCR and the concentration of this cytokine by flow cytometry, using the kit CBA Mouse Inflammation. […] After that, the MARCH-I mRNA levels were analyzed by Real-time PCR. […]

[8] = tested on: CD86; type: cell-based, mice (Mus musculus); conditions: BMDCs treated or not with LPS 24 h, then treated or not with Hsp70 for additional 24 h

For “Hsp70: recombinant Mycobacterium tuberculosis Hsp70 (DnaK) produced in Escherichia coli BL21, LPS removed”, the “graft acceptance after immersion with Hsp70 or peptides (FIG. 17)” value ([1]; 60 μg/ml Hsp70 or 15 μg/ml peptide, 60 minutes at 4° C., compared to OVA peptide and peptide 5) was “inhibited the acute rejection”, the “graft survival compared with grafts treated with OVA (FIG. 1)” value ([1]; 60 μg/ml, 60 minutes at 4° C.) was “greater survival” and the “graft protection with grafts from donors IL-10 KO (FIG. 11 E)” value ([1]; IL-10 KO grafts, 60 μg/ml, 60 minutes) was “cancelled the protection”. For the same substance, the Survival average ([1]; graft immersed in 60 μg/mL for 60 minutes, seven independent experiments) was 20.0 days, the “lengthening of graft survival with TLR2 KO grafts (FIG. 12 D)” value ([1]; mouse, in vivo) was “dependent on the TLR2 expression in the graft” and the “survival of WT grafts in WT or TLR2 KO recipients (FIG. 12 E)” value ([1]; mouse, in vivo) was “very similar survival”. For the same substance, the “IL-10 production, mRNA and protein level (FIG. 11 A)” value ([2]; DCs isolated from mice lymph nodes, 24 h) was “induce the IL-10 production”, the “IL-10 mRNA and protein in DCs TLR2 KO (FIG. 12 A, B)” value ([2]; TLR2 KO compared with DCs WT) was “significant reduction of the mRNA expression” and the “MHC II levels in DCs CD103+ migrating from the graft to the recipient DLN (FIG. 9 B)” value ([3]; 24 h or 96 h after transplantation) was “significant reduction of MHC II levels”. The “CD80 and CD86 levels of donor DCs (FIG. 6 C)” value ([3]; 24 h or 96 h after transplantation, vs OVA) was “reduced levels of CD80 and CD86”, the “CCR7 expression in migratory donor DCs” value ([3]; 24 hours after transplantation, vs OVA) was “upper levels of CCR7” and the “CCR7 expression in migratory donor DCs” value ([3]; four days after transplantation, vs OVA) was “did not differ”. The “MHC II expression in donors DCs in recipient DLN (FIG. 6 A, B)” value ([3]; graft treated by immersion, vs OVA) was “MHC II expression reduction”, the “donor cells (I-A^b+ or GFP+) in the recipient DLN” value ([3]; one and four days after transplantation, vs OVA) was “not noted any difference” and the “percentage of CD11c+ I-Ab^hi cells (FIG. 4)” value [4] was “revert partially”. For the same substance, the “antigens presentation levels by recipient DCs, Y-Ae (FIG. 6 D)” value [5] was “no difference”, the “p-ERK levels in BMDCs (FIG. 13 A)” value ([6]; 30 μg/ml, after 15 minutes of stimulus, WT) was “increase in the phosphor ERK levels” and the “p-ERK levels in TLR2 KO BMDCs (FIG. 13 B)” value ([6]; TLR2 KO BMDCs, 15 minutes) was “increase was not noted”. For the same substance, the “STAT3 phosphorylation in BMDCs (FIG. 13 C)” value [7] was “induced the phosphorylation STAT3” and the “percentage of CD11c+ CD86^hi cells (FIG. 5)” value [8] was “revert partially”.
